Results as given in patent publication US11660303B2, “2-phenylimidazo[4,5-b]pyridin-7-amine derivates useful as inhibitors of mammalian tyrosine kinase ROR1 activity” (KANCERA AB, priority 2016, dated 2023).

Assays:
[1] = test system: PBMC from healthy volunteers; assay: CellTiter-Blue Cell Viability Assay, PBMC from healthy volunteers; type: cell-based; conditions: Homo sapiens, cell toxicity, culture 24, 48 and 72 h (time of the values not stated)
Method: (§1) The CellTiter-Blue® Cell Viability Assay provides a homogeneous, fluorometric method for estimating the number of viable cells present in multi-well plates. The assay uses the indicator dye resazurin to measure the metabolic capacity of cells. Viable cells retain the ability to reduce resazurin into resorufin, which is highly fluorescent.
(§2) Stock solutions (10 or 100 mM in DMSO) of compounds were serially diluted 1:2 in 11 concentrations and 25 nL/well (100 mM stock) or 50 nL/well (10 mM stock) were acoustically dispensed in assay plates with an EDC acoustic dispenser. Final starting concentration in the assay was 20 μM (0.2% DMSO) or 100 μM (0.1% DMSO) for test compounds.
(§3) Peripheral blood mononuclear cells (PBMC) from CLL patients or healthy volunteers were seeded in assay plates (384-well black/clear, Greiner #781091) pre-dispensed with compounds, 25 μL/well, and cultured for 24, 48 and 72 h. The cell concentration was 50 000 cells/well for PBMC from CLL patients or healthy volunteers. After 24, 48 and 72 h culture, Celltiter Blue reagent was added (5 μL/well) and the plates were incubated for 2 h. The plates were read in an Envision fluorescence reader (PerkinElmer) with Ex544 nm/Em590 nm. Results were calculated as % cytotoxicity compared to background (cells treated with 0.2% DMSO).
(§4) Thus, IC50 values for cell toxicity in PBMC from CLL patients as well as healthy volunteers for some compounds of the invention are shown in Table 3 as measured by the CellTiter-Blue® Cell Viability Assay.

[2] = test system: PBMC from CLL patients; assay: CellTiter-Blue Cell Viability Assay, PBMC from CLL patients; type: cell-based; conditions: Homo sapiens, cell toxicity, culture 24, 48 and 72 h (time of the values not stated)
Method: as §1, §2, §3, §4

Structure (SMILES) | IC50 [1] | IC50 [2]
CN1CCC(Nc2c(Cl)cnc3[nH]c(-c4ccc(N5CCN(Cc6ccccc6)C(=O)C5)cc4)nc23)CC1 [Example 291, 1-Benzyl-4-(4-{6-chloro-7-[(1-methylpiperidin-4-yl)amino]-3H-imidazo[4,5-b]pyridin-2-yl}phenyl)piperazin-2-one] | 6500 nM | 40 nM
CC(C)OCCN1CCN(c2ccc(-c3nc4c(NC5CCN(Cc6ccc(N(C)C)cc6)CC5)c(Cl)cnc4[nH]3)cc2)CC1 [Example 90, 6-Chloro-N-{1-[4-(dimethylamino)benzyl]piperidin-4-yl}-2-(4-{4-[2-(1-methylethoxy)ethyl]piperazin-1-yl}phenyl)-3H-imidazo[4,5-b]pyridin-7-amine] | > 20000 nM | 870 nM
CCOCCN1CCN(c2ccc(-c3nc4c(NC5CCN(CC)CC5)c(Cl)cnc4[nH]3)cc2)CC1 [Example 70, 6-Chloro-2-{4-[4-(2-ethoxyethyl)piperazin-1-yl]phenyl}-N-(1-ethylpiperidin-4-yl)-3H-imidazo[4,5-b]pyridin-7-amine] | > 20000 nM | 160 nM
COCCN1CCN(c2ccc(-c3nc4c(NC5CCN(Cc6ccc(OC)cc6)CC5)c(Cl)cnc4[nH]3)cc2)CC1 [Example 14, 6-Chloro-N-[1-(4-methoxybenzyl)piperidin-4-yl]-2-{4-[4-(2-methoxyethyl)piperazin-1-yl]phenyl}-3H-imidazo[4,5-b]pyridin-7-amine] | 15600 nM | 420 nM
COCCN1CCN(c2ccc(-c3nc4c(NC5CCN(CCC#N)CC5)c(Cl)cnc4[nH]3)cc2)CC1 [Example 396, 3-{4-[(6-Chloro-2-{4-[4-(2-methoxyethyl)piperazin-1-yl]phenyl}-3H-imidazo[4,5-b]pyridin-7-yl)amino]piperidin-1-yl}propanenitrile] | > 20000 nM | 190 nM
CC(C)N1CCC(Nc2c(Br)cnc3[nH]c(-c4ccc(N5CCN(Cc6ccncc6)CC5)cc4)nc23)CC1 [Example 151, 6-Bromo-N-[1-(1-methylethyl)piperidin-4-yl]-2-{4-[4-(pyridin-4-ylmethyl)piperazin-1-yl]phenyl}-3H-imidazo[4,5-b]pyridin-7-amine] | 13700 nM | 390 nM
CN1CC[C@H](Nc2c(Cl)cnc3[nH]c(-c4ccc(N5CCN(Cc6ccncc6)CC5)cc4)nc23)C1 [Example 126, 6-Chloro-N-[(3S)-1-methylpyrrolidin-3-yl]-2-{4-[4-(pyridin-4-ylmethyl)piperazin-1-yl]phenyl}-3H-imidazo[4,5-b]pyridin-7-amine] | > 20000 nM | 130 nM
COCCN1CCN(c2ccc(-c3nc4c(NC5CCN(C)CC5)c(Cl)cnc4[nH]3)cc2OC)CC1 [Example 381, 6-Chloro-2-{3-methoxy-4-[4-(2-methoxyethyl)piperazin-1-yl]phenyl}-N-(1-methylpiperidin-4-yl)-3H-imidazo[4,5-b]pyridin-7-amine] | > 20000 nM | 400 nM
CN1CCC(Nc2c(Cl)cnc3[nH]c(-c4ccc(N5CCOCC5)cc4)nc23)CC1 [Example 27, 6-Chloro-N-(1-methylpiperidin-4-yl)-2-(4-morpholin-4-ylphenyl)-3H-imidazo[4,5-b]pyridin-7-amine] | 17700 nM | 90 nM
Cc1noc(C)c1CN1CCN(c2ccc(-c3nc4c(NC5CCN(C)CC5)c(Cl)cnc4[nH]3)cc2)CC1 [Example 119, 6-Chloro-2-(4-{4-[(3,5-dimethylisoxazol-4-yl)methyl]piperazin-1-yl}phenyl)-N-(1-methylpiperidin-4-yl)-3H-imidazo[4,5-b]pyridin-7-amine] | 17000 nM | 40 nM
CCN1CCC(Nc2c(Br)cnc3[nH]c(-c4ccc(N5CCN(C(=O)COC)CC5)cc4)nc23)CC1 [Example 239, 6-Bromo-N-(1-ethylpiperidin-4-yl)-2-{4-[4-(methoxyacetyl)piperazin-1-yl]phenyl}-3H-imidazo[4,5-b]pyridin-7-amine] | > 20000 nM | 100 nM
CN1CCC(Nc2c(Cl)cnc3[nH]c(-c4ccc(N5CCNC(=O)C5)cc4)nc23)CC1 [Example 37, 4-(4-{6-Chloro-7-[(1-methylpiperidin-4-yl)amino]-3H-imidazo[4,5-b]pyridin-2-yl}phenyl)piperazin-2-one] | > 20000 nM | 290 nM
Clc1cnc2[nH]c(-c3ccc(N4CCOCC4)cc3)nc2c1NC1CCN(Cc2cccs2)CC1 [Example 83, 6-Chloro-2-(4-morpholin-4-ylphenyl)-N-[1-(thiophen-2-ylmethyl)piperidin-4-yl]-3H-imidazo[4,5-b]pyridin-7-amine] | > 20000 nM | 1000 nM
CC(C)N1CCC(Nc2c(Cl)cnc3[nH]c(-c4ccc(N5CCN(CCNc6ccnn6C)CC5)cc4)nc23)CC1 [Example 326, 6-Chloro-N-[1-(1-methylethyl)piperidin-4-yl]-2-[4-(4-{2-[(1-methyl-1H-pyrazol-5-yl)amino]ethyl}piperazin-1-yl)phenyl]-3H-imidazo[4,5-b]pyridin-7-amine] | > 20000 nM | 260 nM
CCN1CCC(Nc2c(Br)cnc3[nH]c(-c4ccc(N5CCN(C(=O)c6cccnc6)CC5)cc4)nc23)CC1 [Example 304, 6-Bromo-N-(1-ethylpiperidin-4-yl)-2-{4-[4-(pyridin-3-ylcarbonyl)piperazin-1-yl]phenyl}-3H-imidazo[4,5-b]pyridin-7-amine] | > 20000 nM | 60 nM
COCCC1CCN(c2ccc(-c3nc4c(NC5CCN(C)CC5)c(Cl)cnc4[nH]3)cc2)CC1 [Example 281, 6-Chloro-2-{4-[4-(2-methoxyethyl)piperidin-1-yl]phenyl}-N-(1-methylpiperidin-4-yl)-3H-imidazo[4,5-b]pyridin-7-amine] | 8400 nM | 60 nM
COCCN1CCCN(c2ccc(-c3nc4c(NC5CCN(C(C)C)CC5)c(Cl)cnc4[nH]3)cc2)CC1 [Example 63, 6-Chloro-2-{4-[4-(2-methoxyethyl)-1,4-diazepan-1-yl]phenyl}-N-[1-(1-methylethyl)piperidin-4-yl]-3H-imidazo[4,5-b]pyridin-7-amine] | > 20000 nM | 960 nM
CCOCCN1CCN(c2ccc(-c3nc4c(NC5CCN(CCC#N)CC5)c(Br)cnc4[nH]3)cc2)CC1=O [Example 406, 3-{4-[(6-Bromo-2-{4-[4-(2-ethoxyethyl)-3-oxopiperrazin-1-yl]phenyl}-3H-imidazo[4,5-b]pyridin-7-yl)amino]piperidin-1-yl}propanenitrile] | > 20000 nM | 230 nM
CN1CC[C@H](Nc2c(Br)cnc3[nH]c(-c4ccc(N5CCN(Cc6cncnc6)CC5)cc4)nc23)C1 [Example 157, 6-Bromo-N-[(3S)-1-methylpyrrolidin-3-yl]-2-{4-[4-(pyrimidin-5-ylmethyl)piperazin-1-yl]phenyl}-3H-imidazo[4,5-b]pyridin-7-amine] | > 20000 nM | 290 nM
CN1CCC(Nc2c(Cl)cnc3[nH]c(-c4ccc(N5CCN(Cc6ccccn6)CC5)cc4)nc23)CC1 [Example 98, 6-Chloro-N-(1-methylpiperidin-4-yl)-2-{4-[4-(pyridin-2-ylmethyl)piperazin-1-yl]phenyl}-3H-imidazo[4,5-b]pyridin-7-amine] | > 20000 nM | 60 nM
CC(C)N1CCC(Nc2c(Br)cnc3[nH]c(-c4ccc(N5CCN(CCC#N)CC5)cc4)nc23)CC1 [Example 337, 3-{4-[4-(6-Bromo-7-{[1-(1-methylethyl)piperidin-4-yl]amino}-3H-imidazo[4,5-b]pyridin-2-yl)phenyl]piperazin-1-yl}propanenitrile] | > 20000 nM | 250 nM
COCCCN1CCN(c2ccc(-c3nc4c(NC5CCN(C(C)C)CC5)c(Cl)cnc4[nH]3)cc2)CC1=O [Example 246, 4-[4-(6-Chloro-7-{[1-(1-methylethyl)piperidin-4-yl]amino}-3H-imidazo[4,5-b]pyridin-2-yl)phenyl]-1-(3-methoxypropyl)piperazin-2-one] | > 20000 nM | 110 nM
CN1CCC(Nc2c(Br)cnc3[nH]c(-c4ccc(N5CCN(c6ccncc6)CC5)cc4)nc23)CC1 [Example 16, 6-Bromo-N-(1-methylpiperidin-4-yl)-2-[4-(4-pyridin-4-ylpiperazin-1-yl)phenyl]-3H-imidazo[4,5-b]pyridin-7-amine] | 17200 nM | 80 nM
CCN1CCC(Nc2c(Br)cnc3[nH]c(-c4ccc(N5CCN(C(=O)C(C)(C)C)CC5)cc4)nc23)CC1 [Example 363, 6-Bromo-2-{4-[4-(2,2-dimethylpropanoyl)piperazin-1-yl]phenyl}-N-(1-ethylpiperidin-4-yl)-3H-imidazo[4,5-b]pyridin-7-amine] | 3100 nM | 140 nM
COCCN1CCN(c2ccc(-c3nc4c(NC5CCN(C)CC5)c(Cl)cnc4[nH]3)cc2)CC1=O [Example 230, 4-(4-{6-Chloro-7-[(1-methylpiperidin-4-yl)amino]-3H-imidazo[4,5-b]pyridin-2-yl}phenyl)-1-(2-methoxyethyl)piperazin-2-one] | > 20000 nM | 70 nM
CN1CCC(Nc2c(Br)cnc3[nH]c(-c4ccc(N5CCN(Cc6ccccn6)CC5)cc4)nc23)CC1 [Example 115, 6-Bromo-N-(1-methylpiperidin-4-yl)-2-{4-[4-(pyridin-2-ylmethyl)piperazin-1-yl]phenyl}-3H-imidazo[4,5-b]pyridin-7-amine] | 16200 nM | 40 nM
